Measured values from a melting point compilation (Tetko et al.; mined from patent text by program, amines drawn as free bases though some values may be those of a salt).

With CC(=O)OCCn1c([N+](=O)[O-])cnc1C=O the melting point was 203 to 205 °C. In the case of COc1ccc(C2(c3ccc(N(C)C)cc3N(C)C)OC(=O)c3cc(N(C)C)ccc32)cc1 (stereo not given), the melting point was 90 to 94 °C. With O=C1NC(=O)C(S(=O)(=O)c2ccc(Cl)cc2)S1 (stereo not given) the melting point was 143 to 144 °C. With C=Cc1cc2cccnc2c(-c2cccc([N+](=O)[O-])c2)n1 the melting point was 145 to 151 °C. O=C1C(CCC(O)c2ccc(F)cc2)C(c2ccc(-c3ccccc3O)cc2)N1c1ccc(F)cc1 (stereo not given) showed a melting point of 101 °C. With CCCCN(CCCc1coc2c(OC)cccc12)C1COc2c(F)ccc(C(N)=O)c2C1 (stereo not given) the melting point was 110 to 117 °C. Molecule CCCOc1ccc(S(=O)(=O)C(C)(C)C)cc1C(N)=O has a melting point of 215 to 218 °C. For CN(C)C(=O)/C=C/CSc1nc(N)cc(Cl)n1, the melting point was 173 to 176 °C. Molecule CCCCCCCCOC(=O)c1cnc(C(=O)O)cn1 has a melting point of 142 to 143 °C. Work on COc1ccnc(CCc2nc3cc(-c4ccc(S(=O)(=O)N5CCN(c6ccccc6)CC5)cc4)cnc3[nH]2)c1 yielded a melting point of 218 to 220 °C. COCCNC(=O)c1ccc(C(=O)C=C(c2cc(Cl)cc(Cl)c2)C(F)(F)F)cc1 gave a melting point of 150 to 153 °C. In the case of CCc1cc2nccc(-c3cccnc3)n2n1, the melting point was 103 to 104 °C. With COc1ccc(S(=O)(=O)C(C=CC(C)C)(CC=C(C)C)C(=O)NO)cc1 (stereo not given) the melting point was 93 to 96 °C. Work on CNc1cc(C(F)(F)F)cc(N(CCN(C)C)C(=O)N(C)C)n1 yielded a melting point of 101 to 103 °C. Cc1ccc(C(O[Si](C)(C)C(C)(C)C)C(N)=O)cc1 (stereo not given) gave a melting point of 108 to 110 °C. In the case of Cc1nn(C)c2c1N=C(C1CC1)N1CC(C)N=C21 (stereo not given), the melting point was 107 to 110 °C. Work on COc1cc(CSC2=NCCS2)nc(N)n1 yielded a melting point of 122 to 124 °C. In the case of O=C1N=NC(Cc2ccc(OCCc3coc(-c4ccccc4)n3)cc2)O1 (stereo not given), the melting point was 142 to 144 °C. With COc1cc(OC)nc(C(C)(C#N)c2cccc(Cl)c2)n1 (stereo not given) the melting point was 89 to 93 °C. Cc1nn(C)c2c1c1oc(=O)c(Sc3ccccc3)c(O)c1c(=O)n2Cc1ccc(F)cc1 gave a melting point of 159 to 160 °C. With CCCCC(=O)Nc1ccc(C(F)(F)F)c(-n2nc(CC)n(Cc3ccc(-c4ccccc4S(=O)(=O)NC(C)(C)C)cc3F)c2=O)c1 the melting point was 243 to 245 °C. In the case of CCOC(=O)CCCCCCC(=O)c1ccc2cc(OC)ccc2c1, the melting point was 77 to 78 °C. Molecule COc1ccc(N(C)c2ncnc3occ(C)c23)cc1 has a melting point of 84 to 85.6 °C. For COc1ccc2c(c1)C(NC(=O)C(F)(F)F)CC2 (stereo not given), the melting point was 128 to 136 °C. For CCC(=O)Oc1ccc(-c2nc(-c3ccc(N(C)C)cc3)c(C)[nH]2)cc1OC, the melting point was 244 to 246 °C. Work on O=C(O)c1ccc(Cl)c2c1OC(F)(F)O2 yielded a melting point of 185 °C. With Fc1ccc2c(c1)nc(/C=C/c1ccoc1)n2-c1ccccn1 the melting point was 168 to 170 °C. In the case of CCOC(=O)C1=C(C)NC(C)=C(C(=O)OCC)C1c1ccccc1/C=C/C(=O)OC1CCCC1, the melting point was 182 to 184 °C. COc1ccc(C(=O)N[C@H]2CCN(C)C[C@H]2c2ccc3c(c2)OCO3)cc1OC (relative stereo) showed a melting point of 193 to 194 °C. O=C(O[C@H]1OCCN(Cc2ccccc2)[C@H]1c1ccc(F)cc1)c1cc(C(F)(F)F)cc(C(F)(F)F)c1 gave a melting point of 102 to 103 °C. Cc1ccccc1CCC(=O)NCc1ncc(C(F)(F)F)cc1Cl showed a melting point of 152 to 153 °C. With CC1(OCc2ccccc2Cl)COC(CCl)OC1 (stereo not given) the melting point was 53 to 54 °C. CC(CN(C)C)N1c2ccccc2Sc2ccc(C(=O)NCC3CC3)cc21 (racemic) gave a melting point of 90 °C. In the case of CCCOc1nsc(NC(=O)NC)c1C#N, the melting point was 220 °C. Molecule CC1(CF)C(=O)N(c2ccc(C#N)c(C(F)(F)F)c2)C(=O)N1CC#N (stereo not given) has a melting point of 175 °C. Molecule CCOC(=O)CC1CN(c2c(C)cccc2C)C(=N)N1c1c(C)cccc1C (stereo not given) has a melting point of 142 to 144 °C. For N#Cc1[nH]c2ccc(C(O)(C(F)(F)F)C(F)(F)F)cc2c1-c1ccccc1, the melting point was 247 to 249 °C. Molecule O=C(Nc1ccc2[nH]c(=O)oc2c1)C(=O)N1CCC(Cc2ccc(F)cc2F)CC1 has a melting point of 191 °C. Cc1nnc(-c2ccc3occ(-c4ccccc4F)c3c2)o1 gave a melting point of 112 to 113 °C. In the case of Cc1cc(-c2nc3cccnn3c2-c2ccnc(NC(=O)c3ccccc3C)c2)ccc1F, the melting point was 265 to 266 °C. For O=C(O)c1cnc(NC(=O)C(CC2CCCC2)c2ccc(Cl)c(Cl)c2)s1 (stereo not given), the melting point was 269 to 270 °C. Molecule O=C(CS(=O)(=O)c1cccs1)C12CC3CC(CC(C3)C1)C2 has a melting point of 118 to 119 °C. In the case of Cn1nc(C(=O)Nc2ccc(OCC(C)(C)C)c(C#N)c2)cc1-c1ccccc1, the melting point was 156 to 157 °C. For CC(C)(C)COC(=O)C(C#N)=Cc1cc(O)c(O)c([N+](=O)[O-])c1, the melting point was 173 to 179 °C. With CC(=O)Nc1ccc(OCCCO[N+](=O)[O-])cc1 the melting point was 89 to 92 °C. CC(=O)NC(C(=O)NC1c2cc(C#N)ccc2OC(C)(C)C1O)c1ccccc1 (stereo not given) gave a melting point of 133 to 145 °C. With Cc1ccc(S(=O)(=O)OCC(C)(C)CS(N)(=O)=O)cc1 the melting point was 59 to 61 °C. Molecule CN(C)C(=S)C1CC(C)(C)Oc2ccc([N+](=O)[O-])cc21 (stereo not given) has a melting point of 158 to 160 °C. In the case of c1ccc2c(c1)N=C(N1CCNCC1)c1ccccc1S2, the melting point was 66 to 69 °C. CC#CCNC(=NC#N)SC gave a melting point of 180 to 183 °C. For CCCCCS(=O)(=O)NC(=O)/C=C/c1cc(OCC2CC2)nn1Cc1ccc(C(F)(F)F)cc1Cl, the melting point was 148 to 151 °C. Clc1ccccc1-c1cnc2nncn2n1 gave a melting point of 145 to 148 °C. CNC(=O)N1CCC(Oc2ccc(C(F)(F)F)cc2)(c2ccccc2)CC1 gave a melting point of 118 to 120 °C. For CC(C)(C)[Si](ON1C(=O)c2ccccc2C1=O)(c1ccccc1)c1ccccc1, the melting point was 138 to 143 °C. CC(=O)SCCC(=O)N1CCC[C@H]1C(=O)O showed a melting point of 89 to 90 °C. For OCc1cc2c3ccccc3n(Cc3ccccc3)c2cn1, the melting point was 120 to 122 °C. For Cc1cn(C(C)C(=O)N2CCCC2)nc1-c1ccccc1 (stereo not given), the melting point was 72 to 74 °C. In the case of CC(CC(O)=S)(c1ccc(OCc2ccc3ccccc3n2)cc1)c1ccc(OCc2ccc3ccccc3n2)cc1, the melting point was 92 to 94 °C. With CCOC(=O)c1cc(Br)cc2c(=O)cc(-c3cccc(OCc4ccc5ccccc5c4)c3)oc12 the melting point was 211 to 213 °C. CC(C)(O)c1onc(-c2ccccc2Cl)c1C(=O)c1nnn(Cc2cc(C(F)(F)F)cc(C(F)(F)F)c2)c1-c1cccnc1 gave a melting point of 105 °C. O=C1NC(=O)C(Br)(c2ccc(Oc3ccccc3)cc2)C(=O)N1 showed a melting point of 125 to 127 °C. O=C(c1ccccc1)c1ccc(NC(=O)N2CCC3(CC2)OC(=O)c2ccccc23)cc1 gave a melting point of 161 to 163 °C. In the case of C[C@@H]1CCN(C(=O)C(C)(C)C)[C@@H](C(=O)NOCc2ccccc2)C1, the melting point was 107 to 108 °C. With O=Cc1cccc(-c2ccco2)n1 the melting point was 46 to 48 °C. Molecule Nc1cc(OCc2ccccc2)cc(OCc2ccccc2)c1 has a melting point of 77 to 80 °C. With CC1SC(c2cccnc2)N(C)C1=O (stereo not given) the melting point was 66.5 to 68.5 °C. CCOC(=O)c1nc(-c2ccc(OCc3ccccc3)cc2)[nH]c1-c1ccc(C)cc1 gave a melting point of 168 to 170 °C. Work on CCOC(=O)[C@@H](Cc1ccc2ccc(C#N)cc2c1)c1ccc(O[C@H]2CCN(Cc3ccccc3)C2)cc1 yielded a melting point of 95 to 95.5 °C. Work on COC(=O)C=C1NCC(c2ccccc2)OC1=O (stereo not given) yielded a melting point of 125 to 126 °C. In the case of COc1ccc2oc3ccc(I)cc3c2c1C(=O)Nc1cccnc1, the melting point was 286 to 287 °C. CCCCCOc1ccc(C#CC2(O)CN3CCC2CC3)cc1 (stereo not given) gave a melting point of 153 to 154 °C. CC(=O)CC(=O)C=Cc1ccc2cc[nH]c2c1 showed a melting point of 138 to 142 °C. COc1cc(C=Cc2ccccc2)c(C#N)c(OC)c1 showed a melting point of 147 to 148 °C. Cc1nc(N2CCNCC2)nc(N2CCSCC2)c1C#N gave a melting point of 146 to 148 °C. Work on O=C(O)CSc1nc(Cl)cc(NCc2ccc(Cl)c(Cl)c2)n1 yielded a melting point of 64 to 69 °C. Molecule COC(=O)C(Cl)=Cc1cc(-n2ncc(C(F)(F)F)c(C)c2=O)ccc1Cl has a melting point of 80 to 81 °C. With Cc1nn(C(=O)NC(C)(C)C)c(=O)n1N the melting point was 132 °C. Molecule COc1ccc(C)cc1NC(=O)Nc1ccc(N2CCN(C(=O)Nc3ccc(N(C)CCO)cc3C)CC2)cc1 has a melting point of 208 to 210 °C. COc1ccc(N2CCN(c3ccc(-n4c(C)c[nH]c4=O)cc3)CC2)cc1 gave a melting point greater than 300 °C. Molecule Cc1cc(C#Cc2cn(-c3ncccn3)c(C)n2)ccn1 has a melting point of 164 to 165 °C. In the case of O=C(CCN1CCN(c2cccc(Cl)c2)CC1)N1CC2CC3CC(C2)CC1C3, the melting point was 110 to 112 °C. Molecule Cn1ccnc1C1Cn2cc(C(=O)NCc3ccc(Cl)cc3)c(=O)c3cc(CN4CCOCC4)cc(c32)O1 (stereo not given) has a melting point greater than 260 °C. Molecule Cc1ccc(C(=O)c2ccc(O)cc2)cc1O has a melting point of 174 to 175 °C. In the case of Nc1ncc2sc(=O)n(C3OC(CO)C(O)C3O)c2n1 (stereo not given), the melting point was 220 °C. CC1(C)CCC(C)(C)c2cc(Oc3ccc(C=C(O)C(=O)O)cc3)ccc21 gave a melting point of 207 to 210 °C. CC(C)(C)c1cc(C(=O)CCl)ccc1Cl showed a melting point of 159 °C. Molecule COC(=O)c1c[nH]c(Sc2cc(Cl)c(Cl)cc2Cl)c1 has a melting point of 165 to 175 °C. Molecule CCOCOC(=O)Cc1c(C)n(C(=O)c2ccc(Cl)cc2)c2ccc(OC)cc12 has a melting point of 60 to 61 °C. In the case of CCCCN(CCCC)C(=O)CC1(c2ccc(OCOC)cc2)NCC(c2ccc3c(c2)OCO3)C1C(=O)O (stereo not given), the melting point was 48 to 49 °C. Cc1cccc(NC(=O)CN2c3ccc(Cl)c(Cl)c3[C@@H]3CCN(C(=O)OC(C)(C)C)CC[C@@H]32)c1C (relative stereo) gave a melting point of 146 °C. With CC(C)c1cc(-c2ccc(N)c3ccccc23)nc(N)n1 the melting point was 185 to 186 °C. In the case of N#Cc1c(NCc2ccccc2)n[nH]c1N, the melting point was 150 to 152 °C. In the case of Cc1c(C(=O)O)ccc(S(C)(=O)=O)c1N, the melting point was 197 to 198 °C. In the case of COc1ccccc1N1CCN(C[C@H]2COc3ccc4nc(C)ccc4c3O2)CC1, the melting point was 44 to 47 °C. O=C(O)Cn1c(-c2ccccc2Cl)nc2cccnc21 gave a melting point of 227 to 228 °C. Work on COc1cc(C2=C(C(C)(C)C)C(C)(C)CO2)cc(OC)c1Br yielded a melting point of 139 to 140 °C. With COc1c(Br)ccc2s[nH]c(=O)c12 the melting point was 197 to 198 °C. Molecule Cn1ncc(C(=O)N2CCC2)c1C(=O)Nc1ccn2nc(N3CCOCC3)nc2c1 has a melting point of 232 to 234 °C. Work on CC[C@H]1c2cccn2-c2cc(F)c(F)cc2N1S(=O)(=O)c1ccc(O)c(C)c1 yielded a melting point of 161 to 163 °C. For O=C1c2ccccc2-c2ncccc21, the melting point was 132 to 136 °C.
